Data reported in ChEMBL document CHEMBL3813672, “Discovery of anti-cancer activity for benzo[1,2,4]triazin-7-ones: Very strong correlation to pleurotin and thioredoxin reductase inhibition” (Bioorg Med Chem, 2016).

Assays:
EKVX [1] = test: Growth inhibition of human EKVX cells assessed as cell growth at 10 uM incubated for 48 hrs by sulforhodamine B assay relative to control; type: functional; conditions: read-out: Activity
[2] = Growth inhibition of human HCT15 cells incubated for 48 hrs by sulforhodamine B assay; type: functional; conditions: HCT-15, 48 h
HT-29 = test: Growth inhibition of human HT-29 cells incubated for 48 hrs by sulforhodamine B assay; type: functional; conditions: HT-29, 48 h
U-251 = test: Growth inhibition of human U251 cells incubated for 48 hrs by sulforhodamine B assay; type: functional; conditions: U-251, 48 h
[3] = Growth inhibition of human LOXIMVI cells incubated for 48 hrs by sulforhodamine B assay; type: functional; conditions: LOX IMVI
Malme-3M = test: Growth inhibition of human MALME-3M cells incubated for 48 hrs by sulforhodamine B assay; type: functional
MDA-MB-435 = test: Growth inhibition of human MDA-MB-435 cells incubated for 48 hrs by sulforhodamine B assay; type: functional; conditions: MDA-MB-435, 48 h
SK-MEL-28 = test: Growth inhibition of human SK-MEL-28 cells incubated for 48 hrs by sulforhodamine B assay; type: functional; conditions: SK-MEL-28, 48 h
[4] = Growth inhibition of human IGROV1 cells incubated for 48 hrs by sulforhodamine B assay; type: functional; conditions: IGROV-1, 48 h
[5] = Growth inhibition of human OVCAR3 cells incubated for 48 hrs by sulforhodamine B assay; type: functional; conditions: OVCAR-3, 48 h
[6] = Growth inhibition of human OVCAR4 cells incubated for 48 hrs by sulforhodamine B assay; type: functional; conditions: OVCAR-4, 48 h
[7] = Growth inhibition of human OVCAR5 cells incubated for 48 hrs by sulforhodamine B assay; type: functional; conditions: OVCAR-5, 48 h
[8] = Growth inhibition of human OVCAR8 cells incubated for 48 hrs by sulforhodamine B assay; type: functional; conditions: OVCAR-8, 48 h
ACHN = test: Growth inhibition of human ACHN cells incubated for 48 hrs by sulforhodamine B assay; type: functional
SN12C = test: Growth inhibition of human SN12C cells incubated for 48 hrs by sulforhodamine B assay; type: functional
[9] = Growth inhibition of human TK10 cells incubated for 48 hrs by sulforhodamine B assay; type: functional; conditions: TK-10, 48 h
[10] = Growth inhibition of human UO31 cells incubated for 48 hrs by sulforhodamine B assay; type: functional; conditions: UO-31, 48 h
[11] = Growth inhibition of human PC3 cells incubated for 48 hrs by sulforhodamine B assay; type: functional; conditions: PC-3, 48 h
[12] = Growth inhibition of human DU145 cells incubated for 48 hrs by sulforhodamine B assay; type: functional; conditions: DU-145, 48 h
MCF7 = test: Growth inhibition of human MCF7 cells incubated for 48 hrs by sulforhodamine B assay; type: functional; conditions: MCF7, 48 h
[13] = Growth inhibition of human Hs 578T cells incubated for 48 hrs by sulforhodamine B assay; type: functional
[14] = Growth inhibition of human BT549 cells incubated for 48 hrs by sulforhodamine B assay; type: functional; conditions: BT-549, 48 h
T47D = test: Growth inhibition of human T47D cells incubated for 48 hrs by sulforhodamine B assay; type: functional
MDA-MB-468 = test: Growth inhibition of human MDA-MB-468 cells incubated for 48 hrs by sulforhodamine B assay; type: functional; conditions: MDA-MB-468, 48 h
[15] = Selectivity ratio of IC50 for human GM00637 cells to IC50 for human DU145 cells; type: ADME, cell-based; conditions: GM00637 cells versus DU145 cells, read-out: Ratio IC50
[16] = Growth inhibition of human HL-60(TB) cells incubated for 48 hrs by sulforhodamine B assay; type: functional; conditions: HL-60, 48 h
K562 = test: Growth inhibition of human K562 cells incubated for 48 hrs by sulforhodamine B assay; type: functional; conditions: K562, 48 h
[17] = Growth inhibition of human MOLT4 cells incubated for 48 hrs by sulforhodamine B assay; type: functional; conditions: MOLT-4, 48 h
EKVX [18] = test: Growth inhibition of human EKVX cells incubated for 48 hrs by sulforhodamine B assay; type: functional
[19] = Growth inhibition of human HOP62 cells incubated for 48 hrs by sulforhodamine B assay; type: functional; conditions: HOP-62, 48 h
[20] = Growth inhibition of human HOP92 cells incubated for 48 hrs by sulforhodamine B assay; type: functional; conditions: HOP-92, 48 h
NCI-H23 = test: Growth inhibition of human NCI-H23 cells incubated for 48 hrs by sulforhodamine B assay; type: functional; conditions: NCI-H23, 48 h
NCI-H322M = test: Growth inhibition of human NCI-H322M cells incubated for 48 hrs by sulforhodamine B assay; type: functional
[21] = Growth inhibition of human HCT116 cells incubated for 48 hrs by sulforhodamine B assay; type: functional; conditions: HCT-116, 48 h
[22] = read-out: pLC50 (the source's name) (converted)

With O=c1ccc2nc(C(F)(F)F)nn(-c3ccccc3)c-2c1 the growth at 10 µM (EKVX [1]) was 95.8%, the GI50 [2] was 2.29 µM and the CC50 [2, 22] was 8.13 µM. The TGI ([2]; read-out: pTGI (converted)) was 3.39 µM, the GI50 (HT-29) was 2.63 µM and the CC50 (HT-29; [22]) was > 100 µM. It also gave a GI50 (U-251) of 13.5 µM, a CC50 (U-251; [22]) of 60.3 µM and a TGI (U-251; read-out: pTGI (converted)) of 28.8 µM. The GI50 [3] was 1.58 µM, the CC50 [3, 22] was 6.61 µM and the TGI ([3]; read-out: pTGI (converted)) was 3.24 µM. The GI50 (Malme-3M) was 1.82 µM, the CC50 (Malme-3M; [22]) was 6.03 µM and the TGI (Malme-3M; read-out: pTGI (converted)) was 3.31 µM. For the same compound, the GI50 (MDA-MB-435) was 4.57 µM, the CC50 (MDA-MB-435; [22]) was 40.7 µM and the TGI (MDA-MB-435; read-out: pTGI (converted)) was 16.6 µM. The GI50 (SK-MEL-28) was 1.7 µM, the CC50 (SK-MEL-28; [22]) was 6.31 µM and the TGI (SK-MEL-28; read-out: pTGI (converted)) was 3.24 µM. For the same compound, the GI50 [4] was 12 µM, the CC50 [4, 22] was 55 µM and the TGI ([4]; read-out: pTGI (converted)) was 25.7 µM. It also gave a GI50 [5] of 1.58 µM, a CC50 [5, 22] of 5.5 µM and a TGI ([5]; read-out: pTGI (converted)) of 2.95 µM. It also gave a GI50 [6] of 1.48 µM, a CC50 [6, 22] of 5.37 µM and a TGI ([6]; read-out: pTGI (converted)) of 2.82 µM. The GI50 [7] was 15.5 µM, the CC50 [7, 22] was 55 µM and the TGI ([7]; read-out: pTGI (converted)) was 28.8 µM. For the same compound, the GI50 [8] was 4.17 µM, the CC50 [8, 22] was > 100 µM and the TGI ([8]; read-out: pTGI (converted)) was 33.9 µM. For the same compound, the GI50 (ACHN) was 1.17 µM, the CC50 (ACHN; [22]) was 5.13 µM and the TGI (ACHN; read-out: pTGI (converted)) was 2.45 µM. The GI50 (SN12C) was 7.24 µM, the CC50 (SN12C; [22]) was > 100 µM and the TGI (SN12C; read-out: pTGI (converted)) was 57.5 µM. The GI50 [9] was 1.62 µM, the CC50 [9, 22] was 5.89 µM and the TGI ([9]; read-out: pTGI (converted)) was 3.09 µM. It also gave a GI50 [10] of 1.48 µM, a CC50 [10, 22] of 5.62 µM and a TGI ([10]; read-out: pTGI (converted)) of 2.88 µM. For the same compound, the GI50 [11] was 10.7 µM, the CC50 [11, 22] was 52.5 µM and the TGI ([11]; read-out: pTGI (converted)) was 23.4 µM. It also gave a GI50 [12] of 1.78 µM, a CC50 [12, 22] of 5.62 µM and a TGI ([12]; read-out: pTGI (converted)) of 3.16 µM. For the same compound, the GI50 (MCF7) was 0.49 µM, the CC50 (MCF7; [22]) was > 100 µM and the TGI (MCF7; read-out: pTGI (converted)) was 4.07 µM. The GI50 [13] was 12.3 µM, the CC50 [13, 22] was > 100 µM and the TGI ([13]; read-out: pTGI (converted)) was 81.3 µM. The GI50 [14] was 12.3 µM, the CC50 [14, 22] was 50.1 µM and the TGI ([14]; read-out: pTGI (converted)) was 24.5 µM. The GI50 (T47D) was 1.7 µM, the CC50 (T47D; [22]) was > 100 µM and the TGI (T47D; read-out: pTGI (converted)) was 6.61 µM. It also gave a GI50 (MDA-MB-468) of 1.07 µM, a CC50 (MDA-MB-468; [22]) of 8.32 µM and a TGI (MDA-MB-468; read-out: pTGI (converted)) of 2.95 µM. The selectivity ratio [15] was 2, the GI50 [16] was 1.2 µM and the CC50 [16, 22] was > 100 µM. For the same compound, the TGI ([16]; read-out: pTGI (converted)) was 4.27 µM, the GI50 (K562) was 2.09 µM and the CC50 (K562; [22]) was > 100 µM. For the same compound, the GI50 [17] was 2.14 µM, the CC50 [17, 22] was > 100 µM and the TGI ([17]; read-out: pTGI (converted)) was 9.12 µM. The GI50 (EKVX [18]) was 26.9 µM, the CC50 (EKVX [18]; [22]) was 53.7 µM and the TGI (EKVX [18]; read-out: pTGI (converted)) was 26.9 µM. For the same compound, the GI50 [19] was 7.94 µM, the CC50 [19, 22] was 83.2 µM and the TGI ([19]; read-out: pTGI (converted)) was 27.5 µM. For the same compound, the GI50 [20] was 1.38 µM, the CC50 [20, 22] was 6.17 µM and the TGI ([20]; read-out: pTGI (converted)) was 2.95 µM. It also gave a GI50 (NCI-H23) of 5.89 µM, a CC50 (NCI-H23; [22]) of 66.1 µM and a TGI (NCI-H23; read-out: pTGI (converted)) of 22.4 µM. It also gave a GI50 (NCI-H322M) of 18.6 µM, a CC50 (NCI-H322M; [22]) of 61.7 µM and a TGI (NCI-H322M; read-out: pTGI (converted)) of 33.9 µM. The GI50 [21] was 1.62 µM, the CC50 [21, 22] was 6.17 µM and the TGI ([21]; read-out: pTGI (converted)) was 3.16 µM.
